From ChEMBL document CHEMBL2346647, “Identification and characterization of small molecule inhibitors of signal transducer and activator of transcription 3 (STAT3) signaling pathway by virtual screening” (Bioorg Med Chem Lett, 2013) come the findings set out here.

For assay [1], the system named is MDA-MB-468. Put plainly: Cytotoxicity against human MDA-MB-468 cells assessed as inhibition of cell viability at 10 uM. It is filed as functional.
In assay [2] the target is Signal transducer and activator of transcription 3 (Homo sapiens) (UniProt P40763). As to the kind of experiment: Inhibition of IL-6-induced STAT3 pathway in human HepG2 cells at 10 uM by luciferase reporter gene assay. The class given is cell-based.
Chain of Signal transducer and activator of transcription 3 (Homo sapiens) (P40763 whole entry): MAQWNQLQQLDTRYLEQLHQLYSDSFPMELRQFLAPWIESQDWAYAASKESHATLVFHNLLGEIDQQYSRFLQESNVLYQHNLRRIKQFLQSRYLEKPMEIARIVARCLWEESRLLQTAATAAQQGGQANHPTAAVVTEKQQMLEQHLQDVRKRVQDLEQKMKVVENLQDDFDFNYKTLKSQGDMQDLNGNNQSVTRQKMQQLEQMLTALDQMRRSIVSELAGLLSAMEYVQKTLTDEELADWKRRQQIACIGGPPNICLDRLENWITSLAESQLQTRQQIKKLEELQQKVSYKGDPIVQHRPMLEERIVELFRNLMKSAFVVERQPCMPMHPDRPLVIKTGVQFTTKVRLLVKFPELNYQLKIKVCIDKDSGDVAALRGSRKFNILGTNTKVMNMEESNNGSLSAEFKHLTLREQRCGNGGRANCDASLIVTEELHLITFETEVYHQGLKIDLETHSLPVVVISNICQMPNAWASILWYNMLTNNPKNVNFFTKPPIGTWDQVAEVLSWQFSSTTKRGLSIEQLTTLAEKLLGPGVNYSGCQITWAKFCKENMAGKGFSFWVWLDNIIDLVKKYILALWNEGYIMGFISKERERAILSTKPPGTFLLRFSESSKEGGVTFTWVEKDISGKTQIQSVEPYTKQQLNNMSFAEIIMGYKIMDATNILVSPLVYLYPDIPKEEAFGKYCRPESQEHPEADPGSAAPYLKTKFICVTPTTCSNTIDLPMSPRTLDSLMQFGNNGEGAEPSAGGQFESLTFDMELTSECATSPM
Assay [3] shares this target. Put plainly: Inhibition of IL-6-induced STAT3 phosphorylation at Tyr705 residue in human HepG2 cells pretreated for 6 to 48 hrs prior to IL-6 stimulation by Western blot analysis. It is filed as cell-based. In general terms: A western blot detects proteins with antibodies after separation by electrophoresis.
Assay [4] has as its system HepG2. Put plainly: Effect on JAK2 protein level in human HepG2 cells pretreated at 50 uM for 48 hrs prior to IL-6 stimulation by Western blot analysis. The class given is functional, cell-based.
In assay [5] the test system is HepG2. As to the kind of experiment: Effect on SRC protein level in human HepG2 cells pretreated at 50 uM for 48 hrs prior to IL-6 stimulation by Western blot analysis. It is filed as functional, cell-based.
Assay [6] deals with Proto-oncogene tyrosine-protein kinase Src (Homo sapiens) (UniProt P12931). As to the kind of experiment: Effect on SRC in human HepG2 cells pretreated at 50 uM for 6 to 48 hrs prior to IL-6 stimulation by Western blot analysis. It is filed as cell-based.
Chain of Proto-oncogene tyrosine-protein kinase Src (Homo sapiens) (P12931 2-536 limits assumed): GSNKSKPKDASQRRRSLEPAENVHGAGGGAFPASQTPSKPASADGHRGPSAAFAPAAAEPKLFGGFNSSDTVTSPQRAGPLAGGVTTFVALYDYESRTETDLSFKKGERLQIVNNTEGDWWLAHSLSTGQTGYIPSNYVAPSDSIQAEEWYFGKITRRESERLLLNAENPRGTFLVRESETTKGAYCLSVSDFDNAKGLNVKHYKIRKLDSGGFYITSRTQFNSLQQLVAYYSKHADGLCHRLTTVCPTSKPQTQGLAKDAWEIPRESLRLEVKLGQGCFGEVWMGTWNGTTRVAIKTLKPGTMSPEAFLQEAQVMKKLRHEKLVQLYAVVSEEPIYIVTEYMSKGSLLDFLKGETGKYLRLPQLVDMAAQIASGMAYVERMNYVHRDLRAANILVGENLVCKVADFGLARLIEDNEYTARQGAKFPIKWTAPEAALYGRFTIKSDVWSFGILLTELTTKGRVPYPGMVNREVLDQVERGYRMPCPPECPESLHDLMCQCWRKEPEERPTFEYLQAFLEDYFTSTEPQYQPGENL
The target in assay [7] is Tyrosine-protein kinase JAK2 (Homo sapiens) (UniProt O60674). As to the kind of experiment: Effect on JAK2 in human HepG2 cells pretreated at 50 uM for 48 hrs prior to IL-6 stimulation by Western blot analysis. The class given is cell-based.
Chain of Tyrosine-protein kinase JAK2 (Homo sapiens) (O60674 whole entry): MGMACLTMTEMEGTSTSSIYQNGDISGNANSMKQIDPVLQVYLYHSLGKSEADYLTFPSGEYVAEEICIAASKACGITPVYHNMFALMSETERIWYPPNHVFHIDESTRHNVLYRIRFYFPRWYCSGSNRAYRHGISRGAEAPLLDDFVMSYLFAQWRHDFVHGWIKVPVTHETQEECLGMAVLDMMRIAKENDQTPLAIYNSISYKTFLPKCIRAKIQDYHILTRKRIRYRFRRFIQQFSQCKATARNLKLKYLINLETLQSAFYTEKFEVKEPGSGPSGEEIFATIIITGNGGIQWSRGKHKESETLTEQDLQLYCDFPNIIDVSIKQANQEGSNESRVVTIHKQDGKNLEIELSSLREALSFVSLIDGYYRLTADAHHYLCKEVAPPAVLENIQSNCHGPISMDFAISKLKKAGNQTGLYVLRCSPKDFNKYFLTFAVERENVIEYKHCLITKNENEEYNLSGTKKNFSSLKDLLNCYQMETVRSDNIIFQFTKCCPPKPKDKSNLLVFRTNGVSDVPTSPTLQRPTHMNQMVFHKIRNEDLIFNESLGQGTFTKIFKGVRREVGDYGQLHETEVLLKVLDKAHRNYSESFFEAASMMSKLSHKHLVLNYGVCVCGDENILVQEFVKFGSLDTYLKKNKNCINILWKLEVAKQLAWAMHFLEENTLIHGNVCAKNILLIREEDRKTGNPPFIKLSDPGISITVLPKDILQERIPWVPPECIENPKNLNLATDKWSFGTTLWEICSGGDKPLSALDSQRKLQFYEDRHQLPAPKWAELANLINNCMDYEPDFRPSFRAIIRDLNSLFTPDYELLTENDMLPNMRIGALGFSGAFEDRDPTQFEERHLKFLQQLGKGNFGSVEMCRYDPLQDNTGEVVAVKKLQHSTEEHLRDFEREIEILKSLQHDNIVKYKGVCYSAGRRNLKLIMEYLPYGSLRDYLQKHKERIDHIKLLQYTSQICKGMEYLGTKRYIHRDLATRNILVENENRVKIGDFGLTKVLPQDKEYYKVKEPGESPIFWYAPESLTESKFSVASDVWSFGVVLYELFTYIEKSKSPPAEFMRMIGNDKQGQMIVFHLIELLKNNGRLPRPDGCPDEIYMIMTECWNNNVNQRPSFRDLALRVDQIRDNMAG
Assay [8] concerns HepG2. Put plainly: Effect on total STAT3 protein level in human HepG2 cells pretreated for 6 hrs prior to IL-6 stimulation by Western blot analysis. The class given is functional, cell-based.
The target in assay [9] is Signal transducer and activator of transcription 3 (Homo sapiens) (UniProt P40763). As to the kind of experiment: Inhibition of IL-6-induced STAT3 phosphorylation at Tyr705 residue in human HepG2 cells pretreated at 50 uM for 6 to 48 hrs prior to IL-6 stimulation by Western blot analysis. The class given is cell-based.
Assay [10] concerns MDA-MB-468. As to the kind of experiment: Cytotoxicity against human MDA-MB-468 cells assessed as inhibition of cell viability. The class given is functional, cell-based.
Assay [11] deals with T1, Signal transducer and activator of transcription 1-alpha/beta (Homo sapiens) (UniProt P42224).
T1 sequence (whole entry): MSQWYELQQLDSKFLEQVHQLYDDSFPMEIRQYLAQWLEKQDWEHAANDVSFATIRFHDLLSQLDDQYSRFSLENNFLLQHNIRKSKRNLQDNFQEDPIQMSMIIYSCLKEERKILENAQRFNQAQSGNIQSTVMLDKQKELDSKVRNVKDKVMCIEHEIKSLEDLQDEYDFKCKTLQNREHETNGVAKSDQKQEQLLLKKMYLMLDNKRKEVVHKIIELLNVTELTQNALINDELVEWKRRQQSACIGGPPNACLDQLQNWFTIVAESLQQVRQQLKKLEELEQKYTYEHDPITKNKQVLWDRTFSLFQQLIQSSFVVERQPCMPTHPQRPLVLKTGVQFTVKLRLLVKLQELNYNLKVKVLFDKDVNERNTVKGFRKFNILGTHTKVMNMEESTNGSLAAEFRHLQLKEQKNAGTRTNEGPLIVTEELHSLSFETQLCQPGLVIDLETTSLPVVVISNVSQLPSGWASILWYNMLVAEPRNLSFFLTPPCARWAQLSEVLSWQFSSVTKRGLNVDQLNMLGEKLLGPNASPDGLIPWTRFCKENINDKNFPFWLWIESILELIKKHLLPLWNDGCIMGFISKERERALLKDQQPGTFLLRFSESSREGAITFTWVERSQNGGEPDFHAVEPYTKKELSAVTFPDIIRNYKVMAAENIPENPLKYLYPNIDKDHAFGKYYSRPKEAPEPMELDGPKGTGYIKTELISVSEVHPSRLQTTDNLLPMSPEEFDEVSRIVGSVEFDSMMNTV
Put plainly: Inhibition of IFN-gamma-induced STAT1 (unknown origin) at 10 uM.

Active and inactive are the calls of the source. The calls are words filed in the database; no cut-off is given here.

As for `COc1ccc(Cl)cc1CNCc1ccc2c(c1)OCO2`, the inhibition at 10 µM in the assay on MDA-MB-468 [1] is -4.03%. In [2], the inhibition was -6.39%.
Turning to `Fc1ccc(COc2ccc(Cl)cc2CNCC2CCCO2)cc1` (stereo not drawn), in the assay on MDA-MB-468 [1], the inhibition at 10 µM was 27.5%. Further, in assay [2], the inhibition is 27.8%.
For the compound `NC(=O)COc1ccc(Cl)cc1CNCCN1CCOCC1`, the inhibition at 10 µM with MDA-MB-468 [1] is -2.61%. Also, in [2], the inhibition came to 3.63%.
Take `Clc1ccc(OCc2ccccc2Cl)c(CNCc2ccccc2)c1`: the inhibition at 10 µM in the assay with MDA-MB-468 [1] came out at 10.7%. Besides, the inhibition in assay [2] worked out at 36.6%.
Regarding `C#CCOc1ccc(Cl)cc1CNc1ccccc1Cl`, the inhibition at 10 µM in the assay on MDA-MB-468 [1] is 15.5%.
`COc1cc(/C=C/C(=O)CC(=O)/C=C/c2ccc(O)c(OC)c2)ccc1O` [CURCUMIN]: the inhibition entry in [3] was “Dose-dependent effect”; in assay [2], 41%. Besides, the inhibition at 10 µM with MDA-MB-468 [1] came out at 3.88%.
For the compound `Cc1cccc(NCc2cc(Br)ccc2OCc2ccc(Cl)cc2)c1C`, the inhibition at 10 µM in the assay with MDA-MB-468 [1] was -2.03%. In assay [2], the inhibition amounted to 34.5%.
In the case of `NS(=O)(=O)c1ccc(NCc2cc(Cl)ccc2OCc2ccccc2)cc1`, the result (in the assay on HepG2 [4]; in the assay with HepG2 [5]; in [6]; in assay [7]; in the assay with HepG2 [8]) was inactive. Moreover, the inhibition result in [9] is “Active”. Moreover, the IC50 in the assay with MDA-MB-468 [10] is 28.3 µM. Besides, in the assay with MDA-MB-468 [1], the inhibition at 10 µM worked out at 27.7%. The inhibition in [2] was 42.1%.
In the case of `COCCNCc1ccc(OCc2cc(Cl)cc(Cl)c2)cc1`, the inhibition at 10 µM in the assay with MDA-MB-468 [1] stood at 16.4%. In addition, in assay [2], the inhibition turned out to be 20.2%.
As to `Clc1ccc(COc2ccccc2CNCc2ccccn2)cc1`, the inhibition at 10 µM in the assay with MDA-MB-468 [1] was found to be 18.9%. Besides, the inhibition in assay [2] was found to be 15.6%.
For the compound `Fc1ccc(COc2ccc(Cl)cc2CNCC2CCNCC2)cc1`, in the assay with MDA-MB-468 [1], the inhibition at 10 µM worked out at 38.8%.
For `Oc1ccc(NCc2cc(Cl)ccc2OCc2ccc(Cl)cc2)cc1`, the result (in the assay with HepG2 [4]; with HepG2 [5]; in assay [6]; in [7]; in the assay with HepG2 [8]) was inactive. In assay [9], the inhibition entry is “Active”. Further, the IC50 in the assay with MDA-MB-468 [10] amounted to 18.8 µM. In the assay on MDA-MB-468 [1], the inhibition at 10 µM came to 46.8%. Further, the inhibition in [2] came out at 44.9%; in assay [11], 14.3%.
As to `NC(=O)COc1ccc(Cl)cc1CNCCc1ccccc1`, the inhibition at 10 µM in the assay with MDA-MB-468 [1] was -8.1%. Moreover, the inhibition in assay [2] is 14.3%.
Take `O=C(O)c1ccc(CNCc2ccccc2OCc2ccccc2)cc1`: in the assay on MDA-MB-468 [1], the inhibition at 10 µM is -10.8%. The inhibition in assay [2] is -8.72%.
For `NC(=O)COc1ccc(Cl)cc1CNCc1ccc(F)cc1` the same measures were 54.8% and 1.69%.
For the compound `CC(O)CNCc1c(OCc2ccccc2Cl)ccc2ccccc12` (stereo not drawn), the inhibition at 10 µM in the assay on MDA-MB-468 [1] is 14.9%.
Turning to `OCCNCc1cc(Br)ccc1OCc1ccc(Cl)cc1`, the IC50 in the assay with MDA-MB-468 [10] is 23 µM. For the same compound, in the assay on MDA-MB-468 [1], the inhibition at 10 µM was 26.6%. Further, the inhibition in [2] amounted to 33.2%.

By inhibition is commonly meant the drop in the measured response relative to a control, in per cent. As a reminder, the IC50 is the point on the concentration scale where inhibition reaches its midpoint.
